The values that follow come from ChEMBL document CHEMBL1201862, “PubChem BioAssay data set” (2004).

Assay [1] addresses T1, Beta-galactosidase (Escherichia coli, UniProt Q8VNN2). In words: detection-enzyme interference by beta-gal modulators – biochemical, E. coli enzyme, set 3, artefact control for CCR6 antagonist project, dose response (AID 504712). Type of assay: functional.
The nature of assay [2]: Trypanosoma cruzi growth suppression in host cells – NIH3T3 host cells, beta-gal luminescence, confirmation (AID 2044).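 Further: intracellular parasites grown in NIH/3T3 mouse fibroblasts as host cells; luminescent beta-galactosidase reporter signal from transgenic T. cruzi replicating inside host cells; inhibitors lower the luminescence signal.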 Type of assay: functional, cell-based.
Assay [3] in a line: microbe, parasite or virus in culture. Type of assay: functional. The conditions noted are these: Mycobacterium tuberculosis.
Assay [4] in a line: NIH3T3 cell viability loss – ATP luminescence, mouse fibroblasts, counter-screen, dose response (AID 2010).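 Further: cells exposed to compound for about 90 hours before reading.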 It is filed as functional, cell-based. For orientation: A counterscreen serves to expose hits that act by an unwanted route or on another target.
In assay [5] the target is Glyceraldehyde-3-phosphate dehydrogenase (Homo sapiens, UniProt P04406).
The target of assay [6] is Alkaline phosphatase, placental type (Homo sapiens, UniProt P05187). In words: human placental alkaline phosphatase inhibition – biochemical, luminescence, confirmation (AID 1512). It is filed as functional.
In assay [7] the target is T2, Short transient receptor potential channel 4 (Mus musculus, UniProt Q9QUQ5).
T2 sequence (Q9QUQ5 whole entry): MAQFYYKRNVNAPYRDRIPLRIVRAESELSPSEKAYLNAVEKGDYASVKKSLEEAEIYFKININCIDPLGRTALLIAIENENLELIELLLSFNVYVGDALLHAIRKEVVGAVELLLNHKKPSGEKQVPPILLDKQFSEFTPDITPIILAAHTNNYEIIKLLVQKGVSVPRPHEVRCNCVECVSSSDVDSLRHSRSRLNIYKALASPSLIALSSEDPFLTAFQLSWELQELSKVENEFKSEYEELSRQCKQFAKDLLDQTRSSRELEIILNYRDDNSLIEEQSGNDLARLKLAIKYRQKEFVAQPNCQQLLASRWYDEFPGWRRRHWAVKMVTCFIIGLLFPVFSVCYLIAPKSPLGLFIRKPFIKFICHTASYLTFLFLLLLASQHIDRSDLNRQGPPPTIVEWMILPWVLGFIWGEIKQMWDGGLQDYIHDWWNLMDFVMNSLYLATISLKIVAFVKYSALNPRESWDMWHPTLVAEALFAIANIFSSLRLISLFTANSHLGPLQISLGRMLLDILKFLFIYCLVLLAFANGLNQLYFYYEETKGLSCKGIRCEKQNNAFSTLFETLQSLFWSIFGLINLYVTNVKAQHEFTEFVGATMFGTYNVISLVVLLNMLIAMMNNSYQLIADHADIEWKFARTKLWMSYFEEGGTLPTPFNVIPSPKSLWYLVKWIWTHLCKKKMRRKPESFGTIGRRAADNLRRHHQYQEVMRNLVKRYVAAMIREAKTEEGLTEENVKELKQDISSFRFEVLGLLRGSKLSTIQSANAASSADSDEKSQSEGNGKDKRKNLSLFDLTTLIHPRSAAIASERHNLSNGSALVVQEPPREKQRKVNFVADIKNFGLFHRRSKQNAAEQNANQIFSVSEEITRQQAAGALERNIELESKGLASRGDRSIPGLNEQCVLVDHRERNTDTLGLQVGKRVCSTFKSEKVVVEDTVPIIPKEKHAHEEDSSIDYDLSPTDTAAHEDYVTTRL
In words: potentiation of DAMGO-evoked TRPC4 calcium signal – cell-based, HEK293 TRPC4/mu-opioid, Fluo-4 calcium, EC20 DAMGO, dose response (AID 434941).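 Further: HEK293 cells coexpressing TRPC4 and mu opioid receptor stimulated by EC20 DAMGO.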 It is filed as functional.

Assay [8] addresses Tyrosine-protein phosphatase non-receptor type 12 (Homo sapiens, UniProt Q05209). In words: SAR Selectivity Analysis of small molecule inhibitors of PEST using pCAP in a fluorescence assay. [Related pubchem assays (depositor defined):AID1779, AID1784, AID2135]. Type of assay: functional.
The target of assay [9] is T3, Tyrosine-protein phosphatase non-receptor type 22 (Homo sapiens, UniProt Q9Y2R2).
T3 sequence (Q9Y2R2 whole entry): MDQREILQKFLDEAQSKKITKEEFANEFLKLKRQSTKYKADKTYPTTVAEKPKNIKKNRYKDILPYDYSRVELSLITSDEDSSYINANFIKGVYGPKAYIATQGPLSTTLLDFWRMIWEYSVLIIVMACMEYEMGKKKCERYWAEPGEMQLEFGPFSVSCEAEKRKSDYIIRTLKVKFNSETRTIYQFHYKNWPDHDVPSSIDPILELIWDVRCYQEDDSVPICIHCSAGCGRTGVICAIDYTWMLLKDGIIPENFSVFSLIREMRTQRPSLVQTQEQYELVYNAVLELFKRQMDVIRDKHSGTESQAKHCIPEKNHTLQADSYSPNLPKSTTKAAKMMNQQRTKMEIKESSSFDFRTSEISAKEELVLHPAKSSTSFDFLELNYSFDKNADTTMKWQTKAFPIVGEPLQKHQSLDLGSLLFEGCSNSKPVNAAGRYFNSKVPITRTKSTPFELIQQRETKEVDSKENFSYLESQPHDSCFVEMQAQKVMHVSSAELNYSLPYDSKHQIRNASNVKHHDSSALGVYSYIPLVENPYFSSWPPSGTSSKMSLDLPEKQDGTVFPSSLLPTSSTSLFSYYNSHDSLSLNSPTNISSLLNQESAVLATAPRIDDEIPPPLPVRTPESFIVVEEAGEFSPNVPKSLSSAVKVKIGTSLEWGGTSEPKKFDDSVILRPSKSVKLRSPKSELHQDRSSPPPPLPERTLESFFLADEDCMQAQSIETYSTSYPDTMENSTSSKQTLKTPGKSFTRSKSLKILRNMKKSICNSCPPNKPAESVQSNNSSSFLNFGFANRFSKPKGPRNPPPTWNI
In words: inhibition of lymphoid tyrosine phosphatase LYP – biochemical, pCAP fluorogenic substrate, fluorescence, set 3, SAR follow-up (AID 449727). Type of assay: functional.

Assay [10] addresses T4, Dual specificity protein phosphatase 3 (Homo sapiens, UniProt P51452). Put plainly: SAR VHR1 absorbance Assay for In Vitro dose response studies. [Related pubchem assays (depositor defined):AID1654, AID1661, AID1878, AID1992, AID2004].
In assay [11] the target is T3, Tyrosine-protein phosphatase non-receptor type 22. In words: SAR LYP1 Fluorescent Assay using OMFP substrate for In Vitro dose response studies - Set 3. [Related pubchem assays (depositor defined):AID1779, AID1784, AID2140, AID2686]. It is filed as functional.
Assay [12] has as its target T5, Tyrosine-protein phosphatase non-receptor type 7 (Homo sapiens, UniProt P35236).
T5 sequence (P35236 whole entry): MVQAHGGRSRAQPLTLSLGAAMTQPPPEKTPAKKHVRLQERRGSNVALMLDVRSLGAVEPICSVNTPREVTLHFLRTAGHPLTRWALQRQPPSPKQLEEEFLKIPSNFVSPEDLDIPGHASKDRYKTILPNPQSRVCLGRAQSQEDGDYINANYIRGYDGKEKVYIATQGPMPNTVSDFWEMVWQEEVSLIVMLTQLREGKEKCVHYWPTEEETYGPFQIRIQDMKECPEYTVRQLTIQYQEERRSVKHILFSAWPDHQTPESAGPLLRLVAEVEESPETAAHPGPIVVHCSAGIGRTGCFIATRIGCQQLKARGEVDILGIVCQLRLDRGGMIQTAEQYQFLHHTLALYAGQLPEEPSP
Put plainly: redox-active compounds inhibiting HePTP phosphatase – biochemical, fluorescence, mechanism study (AID 2068). It is filed as functional.

Assay [13] deals with T6, Dual specificity protein phosphatase 6 (Rattus norvegicus, UniProt Q64346).
T6 sequence (Q64346 whole entry): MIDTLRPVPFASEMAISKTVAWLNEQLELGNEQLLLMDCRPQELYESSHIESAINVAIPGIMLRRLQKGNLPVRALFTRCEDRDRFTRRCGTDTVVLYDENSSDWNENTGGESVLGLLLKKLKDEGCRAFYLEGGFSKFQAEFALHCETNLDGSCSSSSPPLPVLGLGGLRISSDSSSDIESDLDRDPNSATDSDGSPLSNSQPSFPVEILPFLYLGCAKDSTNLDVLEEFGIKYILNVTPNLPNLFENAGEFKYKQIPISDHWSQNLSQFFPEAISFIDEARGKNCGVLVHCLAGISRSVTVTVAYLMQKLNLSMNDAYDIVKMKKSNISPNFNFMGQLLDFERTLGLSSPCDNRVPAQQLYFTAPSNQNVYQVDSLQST
Type of assay: functional.

The target of assay [14] is T4, Dual specificity protein phosphatase 3. In words: SAR VHR1 Fluorescent Assay for In Vitro dose response studies. [Related pubchem assays (depositor defined):AID1654, AID1661, AID1878, AID1992, AID2004, AID2070, AID2085]. It is filed as functional.
Assay [15] concerns the target T7, Estrogen receptor (Homo sapiens, UniProt P03372).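 Further: potency for inhibiting coactivator peptide recruitment to the receptor.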
T7 sequence (P03372 whole entry): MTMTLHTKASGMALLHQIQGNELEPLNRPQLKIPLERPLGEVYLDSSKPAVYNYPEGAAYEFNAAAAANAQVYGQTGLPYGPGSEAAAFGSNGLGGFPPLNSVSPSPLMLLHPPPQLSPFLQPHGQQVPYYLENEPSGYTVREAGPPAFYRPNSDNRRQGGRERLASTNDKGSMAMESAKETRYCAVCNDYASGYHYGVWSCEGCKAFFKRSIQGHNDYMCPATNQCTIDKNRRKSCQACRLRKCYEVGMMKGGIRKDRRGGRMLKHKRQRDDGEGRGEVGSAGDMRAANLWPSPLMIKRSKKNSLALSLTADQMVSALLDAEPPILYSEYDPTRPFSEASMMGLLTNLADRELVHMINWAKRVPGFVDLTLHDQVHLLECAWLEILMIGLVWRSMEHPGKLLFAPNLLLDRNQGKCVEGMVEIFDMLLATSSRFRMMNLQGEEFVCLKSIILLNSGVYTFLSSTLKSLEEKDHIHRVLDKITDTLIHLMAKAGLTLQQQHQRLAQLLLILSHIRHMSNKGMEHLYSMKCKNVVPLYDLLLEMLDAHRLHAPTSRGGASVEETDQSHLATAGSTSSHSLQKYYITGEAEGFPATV

In assay [16] the target is T8, Voltage-gated N-type calcium channel alpha-1B subunit/Amyloid beta A4 precursor protein-binding family A member 1 (Homo sapiens, UniProt Q00975+Q02410). It is filed as protein assay.
Assay [17] addresses T8, Voltage-gated N-type calcium channel alpha-1B subunit/Amyloid beta A4 precursor protein-binding family A member 1. It is filed as protein assay. The source holds these as a separate data set.
The target in assay [18] is T9, Kappa-type opioid receptor (Homo sapiens, UniProt P41145). Type of assay: functional.
In assay [19] the target is T1, Beta-galactosidase. It is filed as functional.
For assay [20], the target named is T9, Kappa-type opioid receptor. Type of assay: functional. This is another data set of the same source.
The nature of assay [21]: inhibition of ADAM10 peptide cleavage – biochemical, FRET peptide substrate, recombinant human ADAM10, selectivity assay for ADAM17 exosite inhibitor project, dose response (AID 743259).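 Further: ADAM10 enzyme cleaving a FRET peptide substrate.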
Assay [22] addresses G-protein coupled receptor 55 (Homo sapiens, UniProt Q9Y2T6). Put plainly: selective activators of receptor GPR55 – imaging, U2OS cells, beta-arrestin-GFP redistribution, primary screen (AID 1961). Type of assay: functional.
The target in assay [23] is Disintegrin and metalloproteinase domain-containing protein 17 (Homo sapiens, UniProt P78536). In words: exosite inhibitors of ADAM17, dose response, biochemical (AID 743260).
Assay [24] concerns the target Mu-type opioid receptor (Homo sapiens, UniProt P35372). In words: SAR Analysis of Antagonists of the MOR Receptor using an Image-Based Assay - Set 3. [Related pubchem assays (depositor defined):AID1777, AID1785, AID1786, AID1966, AID2133, AID2136, AID2284, AID2285, AID2420]. It is filed as functional.
Assay [25] addresses Delta-type opioid receptor (Homo sapiens, UniProt P41143). Put plainly: SAR Analysis of Antagonists of the DOR Receptor using an Image-Based Assay - Set 3. [Related pubchem assays (depositor defined):AID1777, AID1785]. It is filed as functional.
Assay [26] addresses T9, Kappa-type opioid receptor. Put plainly: SAR analysis of Antagonists of the Kappa Opioid Receptor (KOR) using an Image-Based Assay - Set 4. [Related pubchem assays (depositor defined):AID1777, AID1785]. Type of assay: functional.
Assay [27] addresses T9, Kappa-type opioid receptor. In words: SAR analysis of small molecule antagonists of the kappa opioid receptor via a luminescent beta-arrestin assay - Set 4. [Related pubchem assays (depositor defined):AID1777, AID1778, AID1785, AID1786, AID1966, AID2133, AID2136, AID2285]. Type of assay: functional.

Activity calls are given as the source filed them.

T9 sequence (P41145 whole entry): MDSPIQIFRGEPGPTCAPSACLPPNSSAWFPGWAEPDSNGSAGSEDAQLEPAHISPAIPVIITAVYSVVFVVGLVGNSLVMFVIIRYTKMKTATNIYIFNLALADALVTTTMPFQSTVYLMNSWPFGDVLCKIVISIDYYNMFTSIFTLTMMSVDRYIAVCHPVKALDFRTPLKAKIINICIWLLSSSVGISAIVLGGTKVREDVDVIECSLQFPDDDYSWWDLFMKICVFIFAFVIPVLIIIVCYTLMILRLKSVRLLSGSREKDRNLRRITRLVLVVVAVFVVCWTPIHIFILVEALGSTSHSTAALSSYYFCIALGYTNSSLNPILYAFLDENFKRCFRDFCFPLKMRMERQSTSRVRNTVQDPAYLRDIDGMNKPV
T8 sequence (Q00975 whole entry): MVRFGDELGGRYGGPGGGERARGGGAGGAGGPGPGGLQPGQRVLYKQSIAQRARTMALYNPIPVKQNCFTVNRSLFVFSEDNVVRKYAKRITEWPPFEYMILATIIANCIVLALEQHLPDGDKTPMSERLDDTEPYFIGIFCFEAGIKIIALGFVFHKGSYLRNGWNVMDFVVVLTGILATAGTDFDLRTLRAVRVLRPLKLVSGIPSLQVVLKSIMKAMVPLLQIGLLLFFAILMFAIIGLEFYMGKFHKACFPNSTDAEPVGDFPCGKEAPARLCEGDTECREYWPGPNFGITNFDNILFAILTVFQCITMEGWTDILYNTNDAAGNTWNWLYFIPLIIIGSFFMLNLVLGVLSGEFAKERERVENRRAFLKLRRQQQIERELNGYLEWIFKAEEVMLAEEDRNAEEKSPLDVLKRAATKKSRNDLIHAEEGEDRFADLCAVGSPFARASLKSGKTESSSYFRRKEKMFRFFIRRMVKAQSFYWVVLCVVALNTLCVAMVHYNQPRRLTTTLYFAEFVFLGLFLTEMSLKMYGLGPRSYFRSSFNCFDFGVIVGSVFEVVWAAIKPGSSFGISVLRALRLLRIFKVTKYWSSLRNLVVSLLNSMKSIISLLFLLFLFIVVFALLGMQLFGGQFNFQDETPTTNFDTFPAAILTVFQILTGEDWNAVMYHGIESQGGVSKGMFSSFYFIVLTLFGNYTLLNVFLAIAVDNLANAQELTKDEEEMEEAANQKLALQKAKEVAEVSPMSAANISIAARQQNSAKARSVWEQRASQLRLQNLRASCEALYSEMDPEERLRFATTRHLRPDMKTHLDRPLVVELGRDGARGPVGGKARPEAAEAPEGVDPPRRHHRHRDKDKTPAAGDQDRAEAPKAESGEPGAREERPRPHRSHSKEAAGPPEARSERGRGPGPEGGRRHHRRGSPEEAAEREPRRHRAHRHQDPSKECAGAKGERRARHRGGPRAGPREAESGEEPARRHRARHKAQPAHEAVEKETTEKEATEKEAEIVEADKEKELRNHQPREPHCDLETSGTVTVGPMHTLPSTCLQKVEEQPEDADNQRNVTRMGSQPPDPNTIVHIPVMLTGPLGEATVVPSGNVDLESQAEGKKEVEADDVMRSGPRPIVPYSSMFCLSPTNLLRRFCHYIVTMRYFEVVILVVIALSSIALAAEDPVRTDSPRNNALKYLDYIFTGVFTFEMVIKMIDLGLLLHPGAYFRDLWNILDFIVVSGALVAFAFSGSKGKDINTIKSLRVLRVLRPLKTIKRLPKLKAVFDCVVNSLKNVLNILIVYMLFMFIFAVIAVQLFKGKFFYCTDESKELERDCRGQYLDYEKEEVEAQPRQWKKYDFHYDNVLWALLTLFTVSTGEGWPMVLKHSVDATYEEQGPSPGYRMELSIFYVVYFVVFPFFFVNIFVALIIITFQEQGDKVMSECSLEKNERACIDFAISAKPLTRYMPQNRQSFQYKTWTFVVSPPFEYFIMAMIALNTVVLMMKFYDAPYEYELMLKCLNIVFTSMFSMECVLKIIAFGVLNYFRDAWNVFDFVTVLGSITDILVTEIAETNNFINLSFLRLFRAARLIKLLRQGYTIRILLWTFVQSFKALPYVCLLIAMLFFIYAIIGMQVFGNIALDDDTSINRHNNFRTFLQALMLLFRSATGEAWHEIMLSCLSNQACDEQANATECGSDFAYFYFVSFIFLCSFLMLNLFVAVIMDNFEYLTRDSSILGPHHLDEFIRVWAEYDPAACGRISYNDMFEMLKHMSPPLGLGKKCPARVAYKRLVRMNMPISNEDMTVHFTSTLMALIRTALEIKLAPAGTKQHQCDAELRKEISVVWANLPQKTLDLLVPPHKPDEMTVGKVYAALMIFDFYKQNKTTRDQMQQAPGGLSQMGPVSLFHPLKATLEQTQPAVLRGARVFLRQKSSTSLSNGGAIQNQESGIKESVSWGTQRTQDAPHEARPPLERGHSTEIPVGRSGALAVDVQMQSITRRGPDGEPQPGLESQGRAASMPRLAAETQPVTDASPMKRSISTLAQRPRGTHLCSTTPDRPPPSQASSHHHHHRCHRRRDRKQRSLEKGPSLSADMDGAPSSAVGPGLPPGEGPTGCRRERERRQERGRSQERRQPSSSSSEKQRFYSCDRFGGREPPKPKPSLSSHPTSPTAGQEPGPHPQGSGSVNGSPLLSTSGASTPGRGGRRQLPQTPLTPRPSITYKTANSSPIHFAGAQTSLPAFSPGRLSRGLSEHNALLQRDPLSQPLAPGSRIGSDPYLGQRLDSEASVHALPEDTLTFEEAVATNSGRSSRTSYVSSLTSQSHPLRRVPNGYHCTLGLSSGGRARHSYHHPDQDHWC
T8 sequence (Q02410 whole entry): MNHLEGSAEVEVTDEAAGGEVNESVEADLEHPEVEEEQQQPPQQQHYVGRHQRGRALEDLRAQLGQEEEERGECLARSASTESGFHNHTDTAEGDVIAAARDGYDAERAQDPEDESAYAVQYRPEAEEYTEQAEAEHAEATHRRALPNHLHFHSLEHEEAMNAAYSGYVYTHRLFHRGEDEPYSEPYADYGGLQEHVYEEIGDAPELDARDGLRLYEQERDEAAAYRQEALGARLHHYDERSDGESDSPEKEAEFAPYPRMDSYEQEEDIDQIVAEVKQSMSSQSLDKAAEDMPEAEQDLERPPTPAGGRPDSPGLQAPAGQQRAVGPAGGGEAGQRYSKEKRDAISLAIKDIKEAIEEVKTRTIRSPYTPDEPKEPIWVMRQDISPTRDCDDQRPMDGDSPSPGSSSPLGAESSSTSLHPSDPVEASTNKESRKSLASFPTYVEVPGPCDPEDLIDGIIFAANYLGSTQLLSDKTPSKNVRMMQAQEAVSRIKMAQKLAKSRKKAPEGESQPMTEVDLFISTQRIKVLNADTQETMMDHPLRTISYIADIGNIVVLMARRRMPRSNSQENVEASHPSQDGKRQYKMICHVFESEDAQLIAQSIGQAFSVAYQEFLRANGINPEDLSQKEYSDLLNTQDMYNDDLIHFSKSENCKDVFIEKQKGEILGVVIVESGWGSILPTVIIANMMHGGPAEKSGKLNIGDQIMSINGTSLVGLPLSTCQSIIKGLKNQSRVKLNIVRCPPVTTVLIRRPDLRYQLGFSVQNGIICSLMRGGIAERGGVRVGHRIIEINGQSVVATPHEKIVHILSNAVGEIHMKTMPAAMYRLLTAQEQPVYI
T1 sequence (Q8VNN2 whole entry): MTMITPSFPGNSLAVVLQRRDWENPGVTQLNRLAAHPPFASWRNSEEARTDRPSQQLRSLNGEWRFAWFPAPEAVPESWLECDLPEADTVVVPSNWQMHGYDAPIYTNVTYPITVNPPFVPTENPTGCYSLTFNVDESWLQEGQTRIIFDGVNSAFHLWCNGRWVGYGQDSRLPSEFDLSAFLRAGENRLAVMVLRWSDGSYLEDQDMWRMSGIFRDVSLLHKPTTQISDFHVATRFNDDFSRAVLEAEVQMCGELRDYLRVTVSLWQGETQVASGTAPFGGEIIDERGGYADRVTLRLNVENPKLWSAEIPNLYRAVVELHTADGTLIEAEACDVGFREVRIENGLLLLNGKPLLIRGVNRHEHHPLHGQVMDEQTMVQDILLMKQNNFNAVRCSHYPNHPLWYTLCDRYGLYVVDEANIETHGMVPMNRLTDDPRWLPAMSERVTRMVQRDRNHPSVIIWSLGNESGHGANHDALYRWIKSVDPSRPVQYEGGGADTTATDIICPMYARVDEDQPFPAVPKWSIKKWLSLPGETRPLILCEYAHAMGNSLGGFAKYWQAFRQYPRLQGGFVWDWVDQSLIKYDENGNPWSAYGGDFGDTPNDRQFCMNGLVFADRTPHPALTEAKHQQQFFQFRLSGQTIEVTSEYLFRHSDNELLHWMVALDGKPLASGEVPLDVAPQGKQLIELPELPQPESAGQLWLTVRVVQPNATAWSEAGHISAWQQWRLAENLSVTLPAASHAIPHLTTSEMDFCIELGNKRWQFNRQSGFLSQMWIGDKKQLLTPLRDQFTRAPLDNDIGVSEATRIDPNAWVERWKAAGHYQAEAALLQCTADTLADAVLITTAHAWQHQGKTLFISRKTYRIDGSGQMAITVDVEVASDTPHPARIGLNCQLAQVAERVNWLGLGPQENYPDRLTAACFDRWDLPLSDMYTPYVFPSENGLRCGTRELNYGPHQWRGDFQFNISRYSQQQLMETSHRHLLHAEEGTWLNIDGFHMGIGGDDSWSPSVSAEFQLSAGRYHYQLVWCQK
T4 sequence (P51452 whole entry): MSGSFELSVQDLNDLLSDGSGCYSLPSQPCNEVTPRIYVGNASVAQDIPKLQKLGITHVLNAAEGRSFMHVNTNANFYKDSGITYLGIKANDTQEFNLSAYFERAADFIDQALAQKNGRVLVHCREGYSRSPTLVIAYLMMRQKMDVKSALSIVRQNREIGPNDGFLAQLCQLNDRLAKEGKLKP
Sequence of G-protein coupled receptor 55 (Q9Y2T6 whole entry, the tested form may be a part): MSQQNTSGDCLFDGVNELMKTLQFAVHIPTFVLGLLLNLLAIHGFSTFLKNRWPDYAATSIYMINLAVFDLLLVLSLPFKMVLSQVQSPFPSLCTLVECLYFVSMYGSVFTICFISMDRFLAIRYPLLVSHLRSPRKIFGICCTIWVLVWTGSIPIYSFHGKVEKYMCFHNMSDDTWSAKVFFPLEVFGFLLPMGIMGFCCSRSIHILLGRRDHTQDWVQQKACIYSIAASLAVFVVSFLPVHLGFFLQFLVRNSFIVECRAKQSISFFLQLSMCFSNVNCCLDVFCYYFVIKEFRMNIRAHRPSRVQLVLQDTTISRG

Take `C=CCN(CC=C)C(=S)NC(=O)c1ccc(-c2ccccc2)cc1`: the IC50 – broadly, the concentration that inhibits the measured activity by half – in assay [1] was > 66.6 µM (inactive). Further, the EC50 (in general, the midpoint of the concentration-response curve) was 1.82 µM (active) in assay [2] and 9.2 µM (active) in [4]. Also, in assay [3], the CC50 is > 40 µM (active).
As to `CC(C)NC(=O)c1cc(-c2cc(F)c(Cl)cc2Cl)n[nH]1`, the figures for the half-inhibitory concentration (IC50) in [5] and in [6] were > 100 µM (not active) and > 100 µM (inactive), respectively.
As to `O=[N+]([O-])c1cc(C(F)(F)F)ccc1NC1CCN(Cc2ccccc2)C1` (configuration not stated), the EC50 in assay [7] was 0.67 µM (active).
With `Cc1cc(OCC(=O)O)ccc1S(C)(=O)=O`, the IC50 in assay [8] was > 100 µM (inactive); in assay [9], > 100 µM (inactive); in assay [10] it was > 100 µM (inactive); in assay [11] it was > 100 µM (inactive); in [12], > 100 µM (inactive); in assay [13] it was > 99 µM (inactive). In addition, the IC50 in [14] was > 99 µM (inactive).
For the compound `C=CCOc1ccc(CC2C(=O)N(C)C(=O)N(C)C2=O)cc1`, the IC50 in [15] is > 50 µM (not active); in assay [16] it was 4.93 µM (active); in [17] it was > 50 µM (inactive).
Take `CCCCC/C(=N/O)c1c(C)[nH]c2ccccc12`: the figures for the half-maximal inhibitory concentration (IC50) in [18] and in [20] were greater than 32 µM and > 31.5 µM (inactive), respectively. Also, the EC50 in assay [19] was > 31.5 µM (inactive).
In the case of `Cc1ccc(S(=O)(=O)N(Cc2ccc(Cl)cc2)c2ccccc2C(=O)NCc2ccco2)cc1`, the IC50 was > 7.72 µM (active) in assay [21] and > 69.5 µM (inactive) in [23]. In assay [22], the EC50 is > 32 µM (inactive).
As to `CC(C)N(CCNC(=O)c1ccc(CNS(=O)(=O)c2ccc(C(C)(C)C)cc2)cc1)Cc1ccccc1`, the IC50 in [24] is > 32 µM (inactive); in assay [25], > 32 µM (inactive); in assay [26], 0.79 µM (active); in assay [27], 2.66 µM (active).
